Test results reported in publication PMC3933419, “Synthesis and Properties of a Selective Inhibitor of Homeodomain–Interacting Protein Kinase 2 (HIPK2)” (PLoS ONE, 2014).
Read-outs that look alike come from different tables or passages of the source.

Assays:
[1] = target: T1, HIPK2 (Homo sapiens, UniProt Q9H2X6); experiment: HIPK2 kinase inhibition assay (33P-ATP, peptide […]); type: biochemical
T1 construct: The source of HIPK2 and of all of the other protein kinases used for specificity assays is as described elsewhere
Protocol: The source of HIPK2 and of all of the other protein kinases used for specificity assays is as described elsewhere. […] The reaction was stopped by addition of 5 μl of 0.5 M orthophosphoric acid before spotting aliquots onto phosphocellulose filters. Filters were washed in 75 mM phosphoric acid (5-10 ml/each) four times and then once in methanol and dried before counting.

[2] = target: T2, CK2 (Rattus norvegicus, UniProt P19139); experiment: CK2 phosphorylation assay; type: biochemical; conditions: 20 µM ATP
T2 construct: Native CK2 and CK1 were purified from rat liver; from tissue; host or cells: rat liver
Protocol: (§1) Native CK2 and CK1 were purified from rat liver.
(§2) PIM1, CK2, CK1 phosphorylation assays were performed following similar procedures used for HIPK2 except that preincubation was omitted. In detail, PIM1 activity was determined at 100 µM ATP concentration and in the presence of 30 µM synthetic peptide substrate […]. CK2 and CK1 activities were assayed in a buffer containing 50 mM Tris/HCl (pH 7.5), 100 mM NaCl, 12 mM MgCl2, 100 µM specific peptide substrate […] (for CK2), or 200 µM […] (for CK1) and 20 µM [γ-^33P]ATP (500–1000 c.p.m./pmol).

[3] = target: T3, PIM1 (Homo sapiens, UniProt P11309); experiment: PIM1 phosphorylation assay; type: biochemical; conditions: 100 µM ATP
T3 construct: The source of HIPK2 and of all of the other protein kinases used for specificity assays is as described elsewhere
Protocol: as §2

[4] = system: CK1; experiment: CK1 phosphorylation assay; type: biochemical, rat; conditions: 20 µM ATP
Protocol: as §1, §2

[5] = target: T4, endogenous HIPK2 (Homo sapiens, UniProt Q9H2X6); experiment: Activity of HIPK2 immunoprecipitated from treated HepG2 cells; type: cell-based; conditions: HepG2 cells, increasing concentrations; immunoprecipitated HIPK2
T4 construct: endogenous in cells; host or cells: HepG2
Protocol: HepG2 cells (human hepatocellular carcinoma) were cultured in Dulbecco's modified Eagle's medium (DMEM; Sigma) supplemented with 10% fetal calf serum, 2 mM L-glutamine, 100 unit/ml penicillin and 100 µg/ml streptomycin; CEM cells (human T lymphoblastoid cells) were cultured n RPMI-1640 (Sigma) with the same supplements. Cells were cultured in an atmosphere containing 5% CO2, at 37°C. Treatments with TBID were performed in the same medium but with 1% fetal calf serum; control cells were treated with the solvent (DMSO). Total cell lysates were prepared as in [29].
Alternatively, HIPK2 was immunoprecipitated with 2.5 µl anti-HIPK2 (Epitomics) from 350 µg of total lysate proteins deriving from HepG2 cells either treated or not with TBID following a protocol elsewhere described. An aspecific antibody was used as negative control. Immunoprecipitated HIPK2 activity was measured towards the specific peptide substrate ([…]) at 1.6 mM concentration, for 10 min at 30°C, under the same conditions described above for the in vitro kinase assay. Peptide radioactivity was measured after sample spotting on phospho-cellulose paper, washing and scintillation counting, as in [30], while the amount of HIPK2 immunoprecipitated was evaluated by WB.

[6] = target: T1, HIPK2; design: method as in PMID 17850214; conditions: 1 µM concentration; panel of 71 protein kinases; ref [9]; cited from earlier work
[7] = system: panel of 71 protein kinases; conditions: 1 µM concentration, ref [9]; cited from earlier work
[8] = target: T1, HIPK2; design: method as in PMID 18588507; conditions: TBB and TBI values; ref [19]; cited from earlier work
[9] = target: T3, PIM1; design: method as in PMID 18588507; conditions: TBB and TBI values; ref [19]; cited from earlier work
[10] = system: CK1; design: method as in PMID 18588507; conditions: TBB and TBI values; ref [19]; cited from earlier work
[11] = system: 70 PKs; experiment: Selectivity parameters (Lorenz curve, Gini coefficient, hit rate) of TBI; type: biochemical; conditions: 10 µM, from data published in ref [19]
Protocol: Lorenz curves were derived from the selectivity data. Gini coefficients and hit rates (expressing the percent of kinases inhibited >50% by a given compound) were calculated as described in [25].

[12] = target: T2, CK2; design: method as in PMID 18588507; conditions: read-out: IC50 for CK2; TBB and TBI values; ref [19]; cited from earlier work
[13] = system: 70 PKs; design: method as in PMID 21513497; conditions: 10 µM TBI; ref [20]; cited from earlier work

T1 sequence (Q9H2X6 whole entry): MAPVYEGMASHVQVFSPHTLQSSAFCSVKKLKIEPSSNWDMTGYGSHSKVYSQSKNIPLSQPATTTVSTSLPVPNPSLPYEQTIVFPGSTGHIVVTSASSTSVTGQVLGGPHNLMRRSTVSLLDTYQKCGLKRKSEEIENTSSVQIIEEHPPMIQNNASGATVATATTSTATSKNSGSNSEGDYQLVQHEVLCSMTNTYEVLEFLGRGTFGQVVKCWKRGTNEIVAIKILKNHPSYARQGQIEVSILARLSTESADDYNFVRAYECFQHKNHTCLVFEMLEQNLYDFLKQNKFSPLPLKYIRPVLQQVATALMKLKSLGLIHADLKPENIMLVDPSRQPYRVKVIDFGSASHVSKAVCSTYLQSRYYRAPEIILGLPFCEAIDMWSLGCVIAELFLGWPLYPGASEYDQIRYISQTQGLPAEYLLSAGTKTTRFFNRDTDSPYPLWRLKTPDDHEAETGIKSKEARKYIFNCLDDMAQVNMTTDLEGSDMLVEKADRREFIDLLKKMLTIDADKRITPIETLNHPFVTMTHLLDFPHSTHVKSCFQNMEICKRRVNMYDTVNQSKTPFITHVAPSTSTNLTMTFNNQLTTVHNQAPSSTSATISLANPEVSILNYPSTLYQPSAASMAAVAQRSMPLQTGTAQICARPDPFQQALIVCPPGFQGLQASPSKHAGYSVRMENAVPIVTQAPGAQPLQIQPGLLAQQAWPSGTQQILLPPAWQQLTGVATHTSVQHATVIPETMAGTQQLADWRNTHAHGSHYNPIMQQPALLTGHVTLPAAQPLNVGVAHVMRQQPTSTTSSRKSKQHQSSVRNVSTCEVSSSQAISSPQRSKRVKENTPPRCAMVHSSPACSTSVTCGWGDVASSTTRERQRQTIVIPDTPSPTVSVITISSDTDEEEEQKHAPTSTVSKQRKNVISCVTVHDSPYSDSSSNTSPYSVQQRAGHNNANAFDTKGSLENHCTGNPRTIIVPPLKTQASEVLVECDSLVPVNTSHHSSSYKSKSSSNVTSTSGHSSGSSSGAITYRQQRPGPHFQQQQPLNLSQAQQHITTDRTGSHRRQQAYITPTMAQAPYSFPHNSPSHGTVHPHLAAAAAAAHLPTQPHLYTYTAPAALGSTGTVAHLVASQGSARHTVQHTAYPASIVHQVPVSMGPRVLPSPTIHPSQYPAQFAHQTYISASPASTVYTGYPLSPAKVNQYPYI
T3 sequence (P11309 whole entry, species assumed): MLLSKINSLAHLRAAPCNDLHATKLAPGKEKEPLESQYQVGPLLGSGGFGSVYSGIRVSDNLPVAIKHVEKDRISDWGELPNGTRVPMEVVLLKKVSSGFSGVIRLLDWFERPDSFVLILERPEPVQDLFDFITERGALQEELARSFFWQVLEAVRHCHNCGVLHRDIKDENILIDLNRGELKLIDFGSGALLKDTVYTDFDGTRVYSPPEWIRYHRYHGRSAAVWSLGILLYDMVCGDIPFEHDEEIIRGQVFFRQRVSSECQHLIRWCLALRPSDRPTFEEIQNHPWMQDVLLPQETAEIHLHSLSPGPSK
T2 sequence (P19139 whole entry): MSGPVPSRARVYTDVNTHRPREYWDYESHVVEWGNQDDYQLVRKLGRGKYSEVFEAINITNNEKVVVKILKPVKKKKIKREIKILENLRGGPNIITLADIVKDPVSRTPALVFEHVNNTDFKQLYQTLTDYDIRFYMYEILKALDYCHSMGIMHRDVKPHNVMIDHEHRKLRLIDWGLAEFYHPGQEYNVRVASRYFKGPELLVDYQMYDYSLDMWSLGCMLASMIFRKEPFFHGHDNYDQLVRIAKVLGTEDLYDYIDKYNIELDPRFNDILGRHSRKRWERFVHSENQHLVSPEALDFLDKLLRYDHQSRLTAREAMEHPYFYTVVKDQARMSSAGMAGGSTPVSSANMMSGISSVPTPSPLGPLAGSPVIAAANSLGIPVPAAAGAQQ
T2 sequence (P67874 whole entry partner): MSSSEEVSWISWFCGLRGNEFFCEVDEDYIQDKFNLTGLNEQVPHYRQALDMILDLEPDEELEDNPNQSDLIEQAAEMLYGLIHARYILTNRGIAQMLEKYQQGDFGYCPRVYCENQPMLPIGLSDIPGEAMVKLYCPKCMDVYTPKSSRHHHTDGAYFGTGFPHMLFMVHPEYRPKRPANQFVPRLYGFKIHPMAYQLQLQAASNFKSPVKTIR
T4 sequence (Q9H2X6 whole entry): as the sequence (Q9H2X6 whole entry) above

SMILES	IC50 ([1]; 20 µM ATP, in vitro) [µM]	IC50 [2] [µM]	IC50 [3] [µM]	IC50 [4] [µM]	melting point	other results
O=C1c2c(Br)c(Br)c(Br)c(Br)c2C(=O)N1c1nccs1 [5b, 4,5,6,7-Tetrabromo-2-(thiazol-2-yl)isoindoline-1,3-dione]	0.72	16	40	9.3	228 to 232 °C	
O=C1c2c(Br)c(Br)c(Br)c(Br)c2C(=O)N1c1nncs1 [5c, 4,5,6,7-Tetrabromo-2-(1,3,4-thiadiazol-2-yl)isoindoline-1,3-dione]	2.6	24	> 40	> 40	310 to 311 °C	
O=C1c2c(Br)c(Br)c(Br)c(Br)c2C(=O)N1c1ncns1 [5d, 4,5,6,7-Tetrabromo-2-(1,2,4-thiadiazol-5-yl)isoindoline-1,3-dione]	2.5	35	> 40	> 40	325 to 326 °C	
O=C1c2c(Br)c(Br)c(Br)c(Br)c2C(=O)N1c1ccn[nH]1 [5e, 4,5,6,7-Tetrabromo-2-(1H-pyrazol-5-yl)isoindoline-1,3-dione]	> 40	23	> 40	> 40	333 to 334 °C (dec.)	endogenous HIPK2 activity upon cell treatment [5]: not
Cc1cc(N2C(=O)c3c(Br)c(Br)c(Br)c(Br)c3C2=O)[nH]n1 [5f, 4,5,6,7-Tetrabromo-2-(3-methyl-1H-pyrazol-5-yl)isoindoline-1,3-dione]	> 40	> 40	> 40	> 40	331 to 332 °C	
O=C1c2c(Br)c(Br)c(Br)c(Br)c2C(=O)N1c1ncn[nH]1 [5g, 4,5,6,7-Tetrabromo-2-(1H-1,2,4-triazol-5-yl)isoindoline-1,3-dione]	22.7	25	> 40	> 40	> 360 °C	
O=C1c2c(Br)c(Br)c(Br)c(Br)c2C(=O)N1c1ccon1 [5h, 4,5,6,7-Tetrabromo-2-(isoxazol-3-yl)isoindoline-1,3-dione]	23.6	> 40	> 40	> 40	290 to 293 °C	
O=C1c2c(Br)c(Br)c(Br)c(Br)c2C(=O)N1c1cnccn1 [5i, 4,5,6,7-Tetrabromo-2-(pyrazin-2-yl)isoindoline-1,3-dione]	3.62	> 40	> 40	> 40	272 to 275 °C	
C[S+]([O-])c1ccc(-c2nc(-c3ccncc3)c(-c3ccc(F)cc3)[nH]2)cc1 (stereo not drawn) [SB203580]						effect on HIPK2 activity ([1]; up to 40 µM concentration): not appreciably affecting; inhibition of HIPK2 [6]: 14%; number of protein kinases inhibited >60% [7]: 6
Brc1c(Br)c(Br)c2[nH]nnc2c1Br [TBB, 4,5,6,7-tetrabromobenzotriazole]						IC50 [8]: 5.3 µM; IC50 [9]: 1.04 µM; IC50 [10]: > 40 µM
Brc1c(Br)c(Br)c2[nH]cnc2c1Br [TBI]						IC50 ([1]; TBI value given in the text): 1 µM; Gini coefficient [11]: 0.310; IC50 [8]: 0.7 µM; IC50 [12]: 0.6 µM; IC50 [9]: 0.115 µM; IC50 [10]: 15 µM; number of kinases inhibited >90% [13]: 10
